# From patent US8642622B2, “Piperidinyl compound as a modulator of chemokine receptor activity” (Bristol-Myers Squibb Company, priority 2010, dated 2014)
# Biological target: T1, CCR1 (Homo sapiens, UniProt P32246)
# T1 construct: THP-1 monocytic leukemia cells are combined with 100 μg of LS WGA PS beads; endogenous in cells; host or cells: THP-1 monocytic leukemia cells
# T1 sequence (P32246 1-355): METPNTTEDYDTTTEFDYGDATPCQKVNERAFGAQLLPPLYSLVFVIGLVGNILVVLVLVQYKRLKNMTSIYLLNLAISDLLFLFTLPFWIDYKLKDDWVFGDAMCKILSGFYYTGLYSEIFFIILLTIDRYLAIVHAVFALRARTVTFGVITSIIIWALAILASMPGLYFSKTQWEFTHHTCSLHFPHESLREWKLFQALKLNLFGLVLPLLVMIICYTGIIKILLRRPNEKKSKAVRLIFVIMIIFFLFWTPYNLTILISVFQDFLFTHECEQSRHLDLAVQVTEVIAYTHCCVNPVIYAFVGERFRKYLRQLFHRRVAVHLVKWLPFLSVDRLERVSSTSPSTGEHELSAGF
# Experiment: Human CCR1 THP-1 binding assay ([125I]MIP-1α competition)
# Conditions: THP-1 cells
# Method: For radioligand competition studies, a final concentration of 1×10^5 THP-1 monocytic leukemia cells are combined with 100 μg of LS WGA PS beads (Amersham, Cat.#: RPNQ 0260) in 40 μL of assay buffer (RPMI 1640 without phenol red, 50 mM HEPES, 5 mM MgCl2, 1 mM CaCl2, 0.1% BSA). The THP-1 cell/bead mixture was added to each well of a 384-well assay plate (PerkinElmer, Cat. #:6007899) containing test compound in 3-fold serial dilution, with final concentrations ranging from 8 μM to 0.14 nM. A final concentration of 0.1 nM [^125I]MIP-1α (PerkinElmer, Cat. # NEX298) in 20 μL assay buffer was added to the reaction. Unlabeled MIP-1α was added in excess to some wells to determine non-specific binding. Sealed assay plates were incubated at room temperature for 12 h then analyzed by LEADseeker™.
# The competition data of the test compound over a range of concentrations is plotted as percentage inhibition of radioligand specifically bound in the absence of test compound (percent of total signal). After correcting for non-specific binding, IC50 values are determined. […] The Ki values are determined by application of the Cheng-Prusoff equation to the IC50 values, where Ki=IC50/(1+ligand concentration/Kd). […]
row,Compound,Ki [nM]
1,"CC(C)[C@@H](NC(=O)[C@@H]1CCC(F)(F)C1)C(=O)N1CC[C@](O)(c2ccc(Cl)cc2)[C@@](C)(O)C1 [Compound I, (R)—N—((R)-1-((3S,4S)-4-(4-chlorophenyl)-3,4-dihydroxy-3-methylpiperidin-1-yl)-3-methyl-1-oxobutan-2-yl)-3,3-difluorocyclopentanecarboxamide]",1.6
2,CC(C)COC(=O)N[C@@H](C(=O)N1CC[C@](O)(c2ccc(Cl)cc2)C(C)(C)C1)C(C)C [Example 1083],2.6
